Laboratory results from PubChem BioAssay (NCI).
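Exposure lasted 48 hours, with cells grown in 96-well plates and compounds tested at five concentrations. Here, GI50 denotes the concentration required for 50% inhibition of growth. TGI denotes the concentration required for complete inhibition of growth.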 Where a SMILES comes first, the peptide text is derived from it. The star is where a group is joined. Palmitoyl = CCCCCCCCCCCCCCCC(=O)*

How the values were obtained:
Assay in all cases: NCI tumour cell line growth inhibition, 48 h
SN12C renal = test system: SN12C renal
MOLT-4 leukemia = test system: MOLT-4 leukemia
LOX IMVI melanoma = test system: LOX IMVI melanoma
NCI-H460 lung = test system: NCI-H460 lung
HL-60(TB) leukemia = test system: HL-60(TB) leukemia
HOP-92 NSCLC = test system: HOP-92 NSCLC
MDA-N = test system: MDA-N
HCT-116 colon = test system: HCT-116 colon
T-47D breast = test system: T-47D breast
MDA-MB-231 breast = test system: MDA-MB-231 breast

Row | Structure (SMILES) | TGI (SN12C renal) [µM] | TGI (MOLT-4 leukemia) [µM] | TGI (LOX IMVI melanoma) [µM] | TGI (NCI-H460 lung) [µM] | TGI (HL-60(TB) leukemia) [µM] | TGI (HOP-92 NSCLC) [µM] | TGI (MDA-N) [µM] | TGI (HCT-116 colon) [µM] | TGI (T-47D breast) [µM] | TGI (MDA-MB-231 breast) [µM] | GI50 (HOP-92 NSCLC) [µM] | GI50 (MOLT-4 leukemia) [µM] | GI50 (NCI-H460 lung) [µM] | GI50 (HCT-116 colon) [µM] | GI50 (T-47D breast) [µM] | GI50 (MDA-MB-231 breast) [µM] | GI50 (HL-60(TB) leukemia) [µM]
1 | CCOC(=O)/C=C1/C(CCCOCc2ccccc2)C2CCCC23CC2(CCN13)OCCO2 (configuration not stated) | 86.8 | 33.2 | 37.9 | 47.1 | 30 |  |  |  |  |  |  |  |  |  |  |  | 
2 | CCc1n[nH]c(=O)n1-c1ccc2ccccc2c1 | > 100 | > 100 | > 100 | > 100 |  | > 100 | > 100 | > 100 | > 100 | > 100 |  |  |  |  |  |  | 
3 | CSc1csc(-c2ccc(-c3ccc(-c4cc(SC)cs4)s3)s2)c1 | > 100 | > 100 | > 100 | > 100 |  |  | > 100 | > 100 |  | > 100 |  |  |  |  |  |  | 
4 | COc1ccc(CC(N)=O)cc1OC | > 1250 | > 1250 | > 1250 | > 1250 | > 1250 | > 1170 |  | > 1250 |  |  |  |  |  |  |  |  | 
5 | CC(C)C1=CC23CCC4C(C)(C(=O)O)CCCC4(C)C2CC1C1C(=O)N(CCCCCCN2C(=O)C4C5CC6C7(C)CCCC(C)(C(=O)O)C7CCC6(C=C5C(C)C)C4C2=O)C(=O)C13 (configuration not stated) | 32.4 | 30.1 |  |  | 82.6 | 36.2 | 28.4 | 20.9 | 41.5 | 36.8 |  |  |  |  |  |  | 
6 | CN1CCN(Cc2cc3c(nn2)-c2ccccc2C3=O)CC1 |  | > 100 |  | > 100 | 72.5 | > 100 | 52.3 | > 100 | > 100 |  |  |  |  |  |  |  | 
7 | CN1Cc2c(nc(-c3ccccc3)c[n+]2[O-])N(C)C1 | > 100 | > 100 | > 100 | > 100 | > 100 | > 100 |  |  |  |  |  |  |  |  |  |  | 
8 | COc1cccc2c1OC(c1cccc3ccccc13)C([N+](=O)[O-])=C2 (configuration not stated) | 11.2 | 5.71 |  | 3.77 | > 100 |  | 10.3 | 2.45 | 5.69 | 5.01 |  |  |  |  |  |  | 
9 | O=C1/C(=C/c2ccc(Cl)cc2)CCCc2ccccc21 | 33.3 | 40 | 31 | 32.2 | 33.5 | 57.3 | 33.3 | 26.5 |  | 39.7 |  |  |  |  |  |  | 
10 | O=c1onc2n1-c1cc(Cl)ccc1C(=S)N1CSCC21 (configuration not stated) | > 100 | > 100 | > 100 | > 100 |  |  | > 100 | > 100 | > 100 | > 100 |  |  |  |  |  |  | 
11 | Cn1ncc2c(NCc3ccccc3)ncnc21 | > 100 | > 100 | > 100 | > 100 | > 100 |  | > 100 | > 100 | > 100 | > 100 |  |  |  |  |  |  | 
12 | CC(C)(C)N=C(N)NC#N | > 100 | > 100 | > 100 | > 100 | > 100 | > 100 | > 100 | > 100 |  | > 100 |  |  |  |  |  |  | 
13 | CCOC(=O)CNC(=O)NC12CC3CC(CC(C3)C1)C2 | > 550 | > 550 | > 550 | > 460 | 543 | 216 |  | > 550 |  |  |  |  |  |  |  |  | 
14 | C=C(C)[C@H]1C2=CC(C(=O)OC)=C(C[C@H](C(=C)C)[C@@H](O)[C@@H](O)C3=C[C@H]1OC3=O)O2 | > 100 | > 100 | > 100 |  | > 100 | > 100 | > 100 | > 100 | > 100 | > 100 |  |  |  |  |  |  | 
15 | CC(C(=O)COCc1ccccc1)P1(=O)OC(C)(C)CN1C(C)(C)C (configuration not stated) | > 100 | > 100 | > 100 | > 100 | > 100 | > 100 | > 100 | > 100 | > 100 |  |  |  |  |  |  |  | 
16 | CC(C)Oc1cccc(N2C(=NCc3c[nH]c4ccccc34)Nc3ccncc3S2(=O)=O)c1 | > 100 | 96.7 | > 100 | 77.6 | > 100 | 56.6 | > 100 | > 100 | 85.2 |  |  |  |  |  |  |  | 
17 | CC1=C(C#N)c2nc3ccccc3n2C(=O)C1(C)CCO (configuration not stated) | > 100 |  | > 100 | > 100 | > 100 | > 100 | > 100 | > 100 |  | > 100 |  |  |  |  |  |  | 
18 | O=C(OCC(Cl)(Cl)Cl)N1CC[C@H](C2CCCCC2)C1 | > 100 | 50.5 | 41.1 | 35.1 |  |  | > 100 | 31.6 | 35.1 | 96.2 |  |  |  |  |  |  | 
19 | c1ccc(C(C(=Nc2ccc(Cc3ccc(N=C(C(c4ccccc4)c4ccccc4)N4CC4)cc3)cc2)N2CC2)c2ccccc2)cc1 | 32.3 |  | 18.9 | 13.4 | 18.4 |  |  | > 100 | 16.5 | 29.2 |  |  |  |  |  |  | 
20 | CCCCCCCCCCCCCCCC(=O)N1CCCC1C(=O)NCC(=O)NC(Cc1ccccc1)C(=O)N1CCCC1C(=O)NC(CO)C(=O)NC(Cc1ccc(O)cc1)C(=O)NC(CCCCN)C(=O)NC(CC(C)C)C(=O)NC(CCCN=C(N)N)C(=O)N1CCCC1C(=O)NCC(N)=O (configuration not stated) (Palmitoyl-PGFPSYKLRPG-NH2; configuration not given here) |  | 37.7 |  | 41.2 | 52.9 | 38.9 |  | 31.9 | 48.5 | 32.8 | 18.7 | 18.6 | 19.4 | 14.8 | 17.9 | 17.5 | 18.7
21 | CCCCOCCOC1=C(Cl)C(=O)c2c(O)ccc(O)c2C1=O | 1.59 | 1.96 | 0.946 | 3.48 |  | 0.657 | 0.766 | 0.841 | 4.07 | 1.07 |  |  |  |  |  |  | 
22 | [N-]=[N+]=CC(=O)OC(CCl)CCl | > 100 | > 100 | > 100 | > 100 | > 100 | > 100 | > 100 | > 100 |  | > 100 |  |  |  |  |  |  | 
23 | CNc1[nH]c(=S)nc2sc3c(c12)CCCC3 | > 75 | > 75 | > 75 |  | > 75 |  |  | > 75 | > 75 | > 75 |  |  |  |  |  |  | 
24 | CO/N=C(/C(=O)OC)c1ccccc1COc1ccccc1C(F)(F)F | > 100 | > 100 |  | > 100 | 51.3 | > 100 | > 100 | > 100 | > 100 | > 100 |  |  |  |  |  |  | 
